Consider 35 molecules from ChEMBL document CHEMBL5380794, “Discovery of a Potent and Selective STAT5 PROTAC Degrader with Strong Antitumor Activity In Vivo in Acute Myeloid Leukemia” (J Med Chem, 2023).

Where only a bound is given, the exact number is not on record here.

The target of the first assay is T1, Signal transducer and activator of transcription 5B (Homo sapiens, UniProt P51692).
T1 sequence (P51692 whole entry): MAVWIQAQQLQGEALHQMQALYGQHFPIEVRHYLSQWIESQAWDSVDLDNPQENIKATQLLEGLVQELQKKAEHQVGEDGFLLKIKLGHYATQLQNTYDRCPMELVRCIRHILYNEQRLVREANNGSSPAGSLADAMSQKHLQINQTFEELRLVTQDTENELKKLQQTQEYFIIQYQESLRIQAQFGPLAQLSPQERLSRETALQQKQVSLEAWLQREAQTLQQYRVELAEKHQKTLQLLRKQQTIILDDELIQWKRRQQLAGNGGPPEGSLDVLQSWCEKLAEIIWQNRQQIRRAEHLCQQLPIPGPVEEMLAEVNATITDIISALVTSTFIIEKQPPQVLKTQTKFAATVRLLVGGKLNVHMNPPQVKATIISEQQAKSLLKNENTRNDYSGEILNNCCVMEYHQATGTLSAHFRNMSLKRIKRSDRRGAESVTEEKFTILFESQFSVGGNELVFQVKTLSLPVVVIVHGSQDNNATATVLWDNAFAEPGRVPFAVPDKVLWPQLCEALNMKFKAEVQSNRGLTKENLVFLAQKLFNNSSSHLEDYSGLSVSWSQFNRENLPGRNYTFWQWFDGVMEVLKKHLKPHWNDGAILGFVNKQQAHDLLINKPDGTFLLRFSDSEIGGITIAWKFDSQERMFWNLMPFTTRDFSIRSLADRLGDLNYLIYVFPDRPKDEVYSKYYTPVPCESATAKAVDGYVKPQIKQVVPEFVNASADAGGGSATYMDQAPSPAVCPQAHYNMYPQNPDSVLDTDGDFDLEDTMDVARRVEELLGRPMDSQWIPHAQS
In words: Binding affinity to STAT5B (unknown origin) assessed as inhibition constant by FP assay.
Take `CC(C)(C)[C@H](NC(=O)c1cc2cc(C(F)(F)P(=O)(O)O)ccc2s1)C(=O)N1CCC[C@H]1C(=O)N1CCC2(CCC2)C1`: the Ki was above 10 µM. On the same count and under the same terms, the value for `CN(C)C(=O)CCN(C(=O)[C@@H]1CCCN1C(=O)[C@@H](NC(=O)c1cc2cc(C(F)(F)P(=O)(O)O)ccc2s1)C(C)(C)C)c1ccc2scnc2c1` was 1.3 µM; that for `CC(C)(C)[C@H](NC(=O)c1cc2cc(C(F)(F)P(=O)(O)O)ccc2s1)C(=O)N1CCC[C@H]1C(=O)N1CCCc2ccccc21` was 6.2 µM; that for `CN(C)C(=O)CCN(C(=O)[C@@H]1CCCN1C(=O)[C@@H](NC(=O)c1cc2cc(C(F)(F)P(=O)(O)O)ccc2s1)C(C)(C)C)c1ccccc1` was 6.8 µM.

`CN(C(=O)[C@@H]1CCCN1C(=O)[C@@H](NC(=O)c1cc2cc(C(F)(F)P(=O)(O)O)ccc2s1)C(C)(C)C)c1ccccc1`: the Ki was 6.2 µM. Still for that read-out and setting: the value for `CC(C)(C)[C@H](NC(=O)c1cc2cc(C(F)(F)P(=O)(O)O)ccc2s1)C(=O)N1CCC[C@H]1C(=O)Nc1ccccc1` was above 10 µM; that for `CN(C)C(=O)CCN(C(=O)[C@@H]1CCCN1C(=O)[C@@H](NC(=O)c1cc2cc(C(F)(F)P(=O)(O)O)ccc2s1)C(C)(C)C)c1ccc(Cl)cc1` was 4.2 µM.

Regarding `C/C(=C\C(=O)N[C@H](C(=O)N1CCC[C@H]1C(=O)N1CCCc2ccccc21)C(C)(C)C)c1ccc(C(F)(F)P(=O)(O)O)cc1`, the Ki was above 10 µM. Same read-out and setting: with `CN(C)C(=O)CCN(C(=O)[C@@H]1CCCN1C(=O)[C@@H](NC(=O)c1cc2cc(C(F)(F)P(=O)(O)O)ccc2s1)C(C)(C)C)c1cccc(Br)c1` the figure was 7 µM. Still for that read-out and setting: the value for `CN(C)C(=O)CCN(C(=O)[C@@H]1CCCN1C(=O)[C@@H](NC(=O)c1cc2cc(C(F)(F)P(=O)(O)O)ccc2s1)C(C)(C)C)c1ccc2occc2c1` was 2 µM; that for `CN(C)C(=O)CCN(C(=O)[C@@H]1CCCN1C(=O)[C@@H](NC(=O)c1cc2cc(C(F)(F)P(=O)(O)O)ccc2s1)C(C)(C)C)c1ccc(Br)cc1` was 2.1 µM. With `CC(C)(C)[C@H](NC(=O)c1cc2cc(C(F)(F)P(=O)(O)O)ccc2s1)C(=O)N1CCC[C@H]1C(=O)N1CCCOCC1`, the Ki was above 10 µM.

In a further assay the target is T2, Signal transducer and activator of transcription 5A (Homo sapiens, UniProt P42229).
T2 sequence (P42229 whole entry): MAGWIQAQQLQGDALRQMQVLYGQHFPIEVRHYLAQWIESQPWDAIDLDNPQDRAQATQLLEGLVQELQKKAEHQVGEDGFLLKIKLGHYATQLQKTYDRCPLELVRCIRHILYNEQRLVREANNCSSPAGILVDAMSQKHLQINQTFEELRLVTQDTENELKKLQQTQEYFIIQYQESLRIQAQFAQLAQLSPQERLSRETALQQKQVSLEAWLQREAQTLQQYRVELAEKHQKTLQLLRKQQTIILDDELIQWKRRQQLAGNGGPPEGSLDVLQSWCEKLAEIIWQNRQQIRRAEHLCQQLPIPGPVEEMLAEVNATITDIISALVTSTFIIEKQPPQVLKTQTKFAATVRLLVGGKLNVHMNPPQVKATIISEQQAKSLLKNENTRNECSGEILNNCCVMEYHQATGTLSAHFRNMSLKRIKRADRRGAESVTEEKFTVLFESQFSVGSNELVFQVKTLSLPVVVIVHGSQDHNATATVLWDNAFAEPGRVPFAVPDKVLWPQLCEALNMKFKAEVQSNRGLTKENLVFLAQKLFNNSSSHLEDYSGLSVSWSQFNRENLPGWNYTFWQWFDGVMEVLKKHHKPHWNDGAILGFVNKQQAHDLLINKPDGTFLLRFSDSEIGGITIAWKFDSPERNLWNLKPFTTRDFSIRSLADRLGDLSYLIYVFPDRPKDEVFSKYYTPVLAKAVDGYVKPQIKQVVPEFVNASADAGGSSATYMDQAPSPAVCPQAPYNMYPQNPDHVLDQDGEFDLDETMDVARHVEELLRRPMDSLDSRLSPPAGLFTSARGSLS
The experiment in a line: Induction of STAT5 degradation in human SKNO-1 cells measured for 18 hrs by Western blot analysis. Type of assay: cell-based. For orientation: Immunoblotting shows a protein as a band on a membrane.
The molecule `CN(CCCC#Cc1cccc2c1CN(C1CCC(=O)NC1=O)C2=O)C(=O)CCN(C(=O)[C@@H]1CCCN1C(=O)[C@@H](NC(=O)c1cc2cc(C(F)(F)P(=O)(O)O)ccc2s1)C(C)(C)C)c1ccc2ccccc2c1` (stereo not given in full) displayed a DC50 of 0.13 µM. This counts as sub-micromolar. Turning to `Cc1ccc(N(CCC(=O)NCCCC#Cc2cccc3c2CN(C2CCC(=O)NC2=O)C3=O)C(=O)[C@@H]2CCCN2C(=O)[C@@H](NC(=O)c2cc3cc(C(F)(F)P(=O)(O)O)ccc3s2)C(C)(C)C)cc1` (stereo not given in full), the DC50 came to 0.31 µM. For `CC(C)(C)[C@H](NC(=O)c1cc2cc(C(F)(F)P(=O)(O)O)ccc2s1)C(=O)N1CCC[C@H]1C(=O)N(CCC(=O)NCCCC#Cc1cccc2c1CN(C1CCC(=O)NC1=O)C2=O)c1ccc2ncsc2c1` (stereo not given in full), the DC50 was above 5 µM. Still for that read-out and setting: with `CC(C)(C)[C@H](NC(=O)c1cc2cc(C(F)(F)P(=O)(O)O)ccc2s1)C(=O)N1CCC[C@H]1C(=O)N(CCC(=O)NCCCC#Cc1cccc2c1CN(C1CCC(=O)NC1=O)C2=O)c1ccc2occc2c1` (stereo not given in full) the figure was 0.33 µM; with `CC(C)(C)[C@H](NC(=O)c1cc2cc(C(F)(F)P(=O)(O)O)ccc2s1)C(=O)N1CCC[C@H]1C(=O)N(CCC(=O)NCCCC#Cc1cccc2c1CN(C1CCC(=O)NC1=O)C2=O)c1ccc(C(F)(F)F)cc1` (stereo not given in full), 2 µM. Still for that read-out and setting: with `CC(C)(C)[C@H](NC(=O)c1cc2cc(C(F)(F)P(=O)(O)O)ccc2s1)C(=O)N1CCC[C@H]1C(=O)N(CCC(=O)NCCCC#Cc1cccc2c1CN(C1CCC(=O)NC1=O)C2=O)c1cccc(C(F)(F)F)c1` (stereo not given in full) the figure was above 5 µM; with `CN(CCCC#Cc1cccc2c1CN(C1CCC(=O)NC1=O)C2=O)C(=O)CCN(C(=O)[C@@H]1CCCN1C(=O)[C@@H](NC(=O)c1cc2cc(C(F)(F)P(=O)(O)O)ccc2s1)C(C)(C)C)c1ccc2scnc2c1` (stereo not given in full), 0.33 µM. The same measure, in the same setting: with `CC(C)(C)[C@H](NC(=O)c1cc2cc(C(F)(F)P(=O)(O)O)ccc2s1)C(=O)N1CCC[C@H]1C(=O)N(CCC(=O)NCCCC#Cc1cccc2c1CN(C1CCC(=O)NC1=O)C2=O)c1cccc2sccc12` (stereo not given in full) the figure was above 5 µM. The molecule `CC(C)(C)[C@H](NC(=O)c1cc2cc(C(F)(F)P(=O)(O)O)ccc2s1)C(=O)N1CCC[C@H]1C(=O)N(CCC(=O)NCCCC#Cc1cccc2c1CN(C1CCC(=O)NC1=O)C2=O)c1ccc(-c2cccs2)cc1` (stereo not given in full) came in with a DC50 of 0.21 µM. In other words, the sub-micromolar range. Same read-out and setting: with `CC(C)(C)[C@H](NC(=O)c1cc2cc(C(F)(F)P(=O)(O)O)ccc2s1)C(=O)N1CCC[C@H]1C(=O)N(CCC(=O)NCCCC#Cc1cccc2c1CN(C1CCC(=O)NC1=O)C2=O)c1ccc(Cl)cc1` (stereo not given in full) the figure was 2.1 µM; with `CC(C)(C)[C@H](NC(=O)c1cc2cc(C(F)(F)P(=O)(O)O)ccc2s1)C(=O)N1CCC[C@H]1C(=O)N(CCCCCCCC#Cc1cccc2c1CN(C1CCC(=O)NC1=O)C2=O)c1ccc(-c2nccs2)cc1` (stereo not given in full), above 5 µM; with `CN(CCCC#Cc1cccc2c1CN(C1CCC(=O)NC1=O)C2=O)C(=O)CCN(C(=O)[C@@H]1CCCN1C(=O)[C@@H](NC(=O)c1cc2cc(C(F)(F)P(=O)(O)O)ccc2s1)C(C)(C)C)c1ccc2occc2c1` (stereo not given in full), 0.2 µM.

Molecule `CN(CCCC#Cc1cccc2c1CN(C1CCC(=O)NC1=O)C2=O)C(=O)CCN(C(=O)[C@@H]1CCCN1C(=O)[C@@H](NC(=O)c1cc2cc(C(F)(F)P(=O)(O)O)ccc2s1)C(C)(C)C)c1ccc2sccc2c1` (stereo not given in full) displayed a DC50 of 0.13 µM. The same measure, in the same setting: with `CC(C)(C)[C@H](NC(=O)c1cc2cc(C(F)(F)P(=O)(O)O)ccc2s1)C(=O)N1CCC[C@H]1C(=O)N(CCC(=O)NCCCC#Cc1cccc2c1CN(C1CCC(=O)NC1=O)C2=O)c1ccc(F)cc1` (stereo not given in full) the figure was above 5 µM. In turn, `CC(C)(C)[C@H](NC(=O)c1cc2cc(C(F)(F)P(=O)(O)O)ccc2s1)C(=O)N1CCC[C@H]1C(=O)N(CCC(=O)NCCCC#Cc1cccc2c1CN(C1CCC(=O)NC1=O)C2=O)c1ccc(Cl)c(F)c1` (stereo not given in full) displayed a DC50 above 5 µM. On the same count and under the same terms, the value for `CC(C)(C)[C@H](NC(=O)c1cc2cc(C(F)(F)P(=O)(O)O)ccc2s1)C(=O)N1CCC[C@H]1C(=O)N(CCC(=O)NCCCC#Cc1cccc2c1CN(C1CCC(=O)NC1=O)C2=O)c1ccc2ccccc2c1` (stereo not given in full) was 0.21 µM. Same read-out and setting: the value for `CC(C)(C)[C@H](NC(=O)c1cc2cc(C(F)(F)P(=O)(O)O)ccc2s1)C(=O)N1CCC[C@H]1C(=O)N(CCC(=O)NCCCC#Cc1cccc2c1CN(C1CCC(=O)NC1=O)C2=O)c1ccc(C#N)cc1` (stereo not given in full) was above 5 µM. On the same count and under the same terms, with `CC(C)(C)c1ccc(N(CCC(=O)NCCCC#Cc2cccc3c2CN(C2CCC(=O)NC2=O)C3=O)C(=O)[C@@H]2CCCN2C(=O)[C@@H](NC(=O)c2cc3cc(C(F)(F)P(=O)(O)O)ccc3s2)C(C)(C)C)cc1` (stereo not given in full) the figure was above 5 µM. As for `CC(C)(C)[C@H](NC(=O)c1cc2cc(C(F)(F)P(=O)(O)O)ccc2s1)C(=O)N1CCC[C@H]1C(=O)N(CCC(=O)NCCCC#Cc1cccc2c1CN(C1CCC(=O)NC1=O)C2=O)c1ccc(S(C)(=O)=O)cc1` (stereo not given in full), the DC50 was above 5 µM. On the same count and under the same terms, the value for `CC(C)(C)[C@H](NC(=O)c1cc2cc(C(F)(F)P(=O)(O)O)ccc2s1)C(=O)N1CCC[C@H]1C(=O)N(CCC(=O)NCCCC#Cc1cccc2c1CN(C1CCC(=O)NC1=O)C2=O)c1ccc(-c2nccs2)cc1` (stereo not given in full) was 0.13 µM; that for `CC(C)(C)[C@H](NC(=O)c1cc2cc(C(F)(F)P(=O)(O)O)ccc2s1)C(=O)N1CCC[C@H]1C(=O)N(CCC(=O)NCCCC#Cc1cccc2c1CN(C1CCC(=O)NC1=O)C2=O)c1cccc(C#N)c1` (stereo not given in full) was above 5 µM; that for `CC(C)(C)[C@H](NC(=O)c1cc2cc(C(F)(F)P(=O)(O)O)ccc2s1)C(=O)N1CCC[C@H]1C(=O)N(CCC(=O)NCCCC#Cc1cccc2c1CN(C1CCC(=O)NC1=O)C2=O)c1ccc(I)cc1` (stereo not given in full) was 0.53 µM. For the molecule `CC(C)(C)[C@H](NC(=O)c1cc2cc(C(F)(F)P(=O)(O)O)ccc2s1)C(=O)N1CCC[C@H]1C(=O)N(CCC(=O)NCCCC#Cc1cccc2c1CN(C1CCC(=O)NC1=O)C2=O)c1ccccc1` (stereo not given in full), the DC50 is above 5 µM.

As a reminder, the Ki is a measure of affinity in units of concentration, obtained from inhibition or displacement. In general, DC50 refers to the concentration at which degradation of the target reaches its halfway point. A high value points to degradation only at high concentration.
